Measurements from patent publication US20070128217A1 (priority 2003, published 2007).

Tests used:
[1] = tested on: control sera (pooled serum of ten healthy LUMC hospital workers; commercial negative donor pooled serum from the Dutch bloodbank); format: binding, human; design: Binding of Control serum LUMC to linear peptides / Binding of Control serum Blood-bank to linear peptides / Binding of Control serum LUMC to looped peptides / Binding of Control Serum Blood-Bank to Looped peptides / Binding of Control serum LUMC to linear peptides of the protein M of SARS-CoV Urbani / Binding of Control serum Blood-bank to linear peptides of the protein M of SARS-CoV Urbani / Binding of Control serum LUMC to looped peptides of the protein M of SARS-CoV Urbani / Binding of Control Serum Blood-Bank to Looped peptides of the protein M of SARS-CoV Urbani: unit not given here
[2] = tested on: antibodies in sera from SARS patients (sera 1a, 1b, 2, 6, 37, 62, London, SARS-yellow, SARS-green); format: binding, human; design: Binding of serum 6 to linear peptides of protein X1 of SARS-CoV Urbani / Binding of serum 37 to linear peptides of protein X1 of SARS-CoV Urbani / Binding of serum 6 to looped/cyclic peptide (PEPSCAN-ELISA) / Binding of serum 37 to looped/cyclic peptide (PEPSCAN-ELISA) / Binding of serum 37 to looped/cyclic peptides of protein X1 of SARS-CoV Urbani / Binding of serum 6 to linear peptides of protein X2 / Binding of serum 37 to linear peptides of protein X2 / Binding of serum 37 to looped/cyclic peptides of protein X2 of SARS-CoV Urbani / Binding of serum 6 to linear peptides of protein M of SARS-CoV Urbani / Binding of serum 37 to linear peptides of protein M of SARS-CoV Urbani / Binding of serum 6 to looped/cyclic peptides of protein M of SARS-CoV Urbani / Binding of serum 37 to looped/cyclic peptides of protein M of SARS-CoV Urbani / Binding of serum 6 to linear peptides of protein X3 of SARS-CoV Urbani / Binding of serum 37 to linear peptides of protein X3 of SARS-CoV Urbani / Binding of serum 37 to looped/cyclic peptides of protein X3 of SARS-CoV Urbani / Binding of serum 6 to linear peptides of protein X4 of SARS-CoV Urbani / Binding of serum 37 to linear peptides of protein X4 of SARS-CoV Urbani / Binding of serum 37 to looped/cyclic peptides of protein X4 of SARS-CoV Urbani / Binding of serum 6 to linear peptides of protein X5 of SARS-CoV Urbani / Binding of serum 37 to linear peptides of protein X5 of SARS-CoV Urbani / Binding of serum 37 to looped/cyclic peptides of protein X5 of SARS-CoV Urbani / Binding of serum 6 to linear peptides of protein N of SARS-CoV Urbani / Binding of serum 37 to linear peptides of protein N of SARS-CoV Urbani / Binding of serum 6 to linear peptide (PEPSCAN-ELISA) / Binding of serum 1a to looped/cyclic peptides of protein N of SARS-CoV Urbani / Binding of serum 1b to looped/cyclic peptides of protein N of SARS-CoV Urbani / Binding of serum 2 to looped/cyclic peptides of protein N of SARS-CoV Urbani / Binding of serum 6 to looped/cyclic peptides of protein N of SARS-CoV Urbani / Binding of serum 37 to looped/cyclic peptides of protein N of SARS-CoV Urbani / Binding of serum 62 to looped/cyclic peptides of protein N of SARS-CoV Urbani / Binding of serum London to looped/cyclic peptides of protein N of SARS-CoV Urbani / Binding of serum SARS-green to looped/cyclic peptides of protein N of SARS-CoV Urbani: unit not given here
[3] = tested on: rabbit serum obtained by immunizing a rabbit with the SARS-CoV strain Frankfurt 1; format: binding; design: Binding of a rabbit serum to linear peptides / Binding of a rabbit serum to looped peptides / Rabbit serum linear peptides / Rabbit serum looped peptides / Binding of a rabbit serum to linear peptides of protein N of SARS-CoV Urbani (Rabbit serum linear peptides) / Binding of a rabbit serum to looped/cyclic peptides of protein N of SARS-CoV Urbani (Rabbit serum looped peptides): unit not given here

Sequence: CNLLLLFVTIYSHLL
- Binding of Control Serum Blood-Bank to Looped peptides [1]: 0.5
- Binding of Control serum Blood-bank to linear peptides [1]: 0.4
- Binding of Control serum LUMC to linear peptides [1]: 0.4
- Binding of Control serum LUMC to looped peptides [1]: 0.5
- Binding of serum 1a to linear peptides of protein X1 of SARS-CoV Urbani [2]: 0.7
- Binding of serum 1a to looped/cyclic peptide (PEPSCAN-ELISA) [2]: 0.5
- Binding of serum 1b to linear peptides of protein X1 of SARS-CoV Urbani [2]: 0.5
- Binding of serum 1b to looped/cyclic peptide (PEPSCAN-ELISA) [2]: 0.4
- Binding of serum 2 to linear peptides of protein X1 of SARS-CoV Urbani [2]: 0.5
- Binding of serum 2 to looped/cyclic peptide (PEPSCAN-ELISA) [2]: 0.4
- Binding of serum 6 to linear peptides of protein X1 of SARS-CoV Urbani [2]: 0.4
- Binding of serum 6 to looped/cyclic peptide (PEPSCAN-ELISA) [2]: 0.3
- Binding of serum 37 to linear peptides of protein X1 of SARS-CoV Urbani [2]: 0.6
- Binding of serum 37 to looped/cyclic peptide (PEPSCAN-ELISA) [2]: 0.5
- Binding of serum 62 to linear peptides of protein X1 of SARS-CoV Urbani [2]: 0.4
- Binding of serum 62 to looped/cyclic peptide (PEPSCAN-ELISA) [2]: 0.5
- Binding of serum London to linear peptides of protein X1 of SARS-CoV Urbani [2]: 0.2
- Binding of serum London to looped/cyclic peptide (PEPSCAN-ELISA) [2]: 0.2
- Binding of serum SARS-green to linear peptides of protein X1 of SARS-CoV Urbani [2]: 0.1
- Binding of serum SARS-green to looped/cyclic peptide (PEPSCAN-ELISA) [2]: 0.2
- Binding of serum SARS-yellow to linear peptides of protein X1 of SARS-CoV Urbani [2]: 0.4
- Binding of serum SARS-yellow to looped/cyclic peptide (PEPSCAN-ELISA) [2]: 0.4
- Binding of a rabbit serum to linear peptides [3]: 0.1
- Binding of a rabbit serum to looped peptides [3]: 0.6

Sequence: CTPNVTINCQDPAGG
- Binding of Control Serum Blood-Bank to Looped peptides [1]: 0.4
- Binding of Control serum Blood-bank to linear peptides [1]: 0.7
- Binding of Control serum LUMC to linear peptides [1]: 0.3
- Binding of Control serum LUMC to looped peptides [1]: 0.4
- Binding of serum 1a to linear peptides of protein X5 of SARS-CoV Urbani [2]: 1.0
- Binding of serum 1a to looped/cyclic peptides of protein X5 of SARS-CoV Urbani [2]: 0.6
- Binding of serum 1b to linear peptides of protein X5 of SARS-CoV Urbani [2]: 0.8
- Binding of serum 1b to looped/cyclic peptides of protein X5 of SARS-CoV Urbani [2]: 0.8
- Binding of serum 2 to linear peptides of protein X5 of SARS-CoV Urbani [2]: 0.6
- Binding of serum 2 to looped/cyclic peptides of protein X5 of SARS-CoV Urbani [2]: 0.3
- Binding of serum 6 to linear peptides of protein X5 of SARS-CoV Urbani [2]: 0.6
- Binding of serum 6 to looped/cyclic peptides of protein X5 of SARS-CoV Urbani [2]: 0.3
- Binding of serum 37 to linear peptides of protein X5 of SARS-CoV Urbani [2]: 0.7
- Binding of serum 37 to looped/cyclic peptides of protein X5 of SARS-CoV Urbani [2]: 0.4
- Binding of serum 62 to linear peptides of protein X5 of SARS-CoV Urbani [2]: 0.7
- Binding of serum 62 to looped/cyclic peptides of protein X5 of SARS-CoV Urbani [2]: 0.3
- Binding of serum London to linear peptides of protein X5 of SARS-CoV Urbani [2]: 0.8
- Binding of serum London to looped/cyclic peptides of protein X5 of SARS-CoV Urbani [2]: 0.2
- Binding of serum SARS-green to linear peptides of protein X5 of SARS-CoV Urbani [2]: 0.5
- Binding of serum SARS-green to looped/cyclic peptides of protein X5 of SARS-CoV Urbani [2]: 0.4
- Binding of serum SARS-yellow to linear peptides of protein X5 of SARS-CoV Urbani [2]: 0.0
- Binding of serum SARS-yellow to looped/cyclic peptides of protein X5 of SARS-CoV Urbani [2]: 0.4
- Rabbit serum linear peptides [3]: 0.4
- Rabbit serum looped peptides [3]: 0.0

Sequence: CTSTHFAFACADGTR
- Binding of Control Serum Blood-Bank to Looped peptides [1]: 0.8
- Binding of Control serum Blood-bank to linear peptides [1]: 0.7
- Binding of Control serum LUMC to linear peptides [1]: 0.8
- Binding of Control serum LUMC to looped peptides [1]: 0.7
- Binding of serum 1a to linear peptides of protein X4 of SARS-CoV Urbani [2]: 0.7
- Binding of serum 1a to looped/cyclic peptides of protein X4 of SARS-CoV Urbani [2]: 0.7
- Binding of serum 1b to linear peptides of protein X4 of SARS-CoV Urbani [2]: 0.7
- Binding of serum 1b to looped/cyclic peptides of protein X4 of SARS-CoV Urbani [2]: 0.4
- Binding of serum 2 to linear peptides of protein X4 of SARS-CoV Urbani [2]: 0.5
- Binding of serum 2 to looped/cyclic peptides of protein X4 of SARS-CoV Urbani [2]: 0.6
- Binding of serum 6 to linear peptides of protein X4 of SARS-CoV Urbani [2]: 0.6
- Binding of serum 6 to looped/cyclic peptides of protein X4 of SARS-CoV Urbani [2]: 0.6
- Binding of serum 37 to linear peptides of protein X4 of SARS-CoV Urbani [2]: 0.7
- Binding of serum 37 to looped/cyclic peptides of protein X4 of SARS-CoV Urbani [2]: 0.7
- Binding of serum 62 to linear peptides of protein X4 of SARS-CoV Urbani [2]: 0.8
- Binding of serum 62 to looped/cyclic peptides of protein X4 of SARS-CoV Urbani [2]: 0.7
- Binding of serum London to linear peptides of protein X4 of SARS-CoV Urbani [2]: 0.7
- Binding of serum London to looped/cyclic peptides of protein X4 of SARS-CoV Urbani [2]: 0.3
- Binding of serum SARS-green to linear peptides of protein X4 of SARS-CoV Urbani [2]: 0.6
- Binding of serum SARS-green to looped/cyclic peptides of protein X4 of SARS-CoV Urbani [2]: 0.4
- Binding of serum SARS-yellow to linear peptides of protein X4 of SARS-CoV Urbani [2]: 0.4
- Binding of serum SARS-yellow to looped/cyclic peptides of protein X4 of SARS-CoV Urbani [2]: 1.0
- Rabbit serum linear peptides [3]: 0.4
- Rabbit serum looped peptides [3]: 0.6
